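1) Cells in 96-well plates. 2) Compound, 48 h, 5 concentrations. 3) Linear interpolation between surrounding doses. 4) Unreached endpoint = highest concentration. GI50: concentration for 50% inhibition of growth.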 Active and inactive are the calls of the source. Cut-off read from the data, not from the text of the source: active = GI50 up to about 1.1 µM and inactive = higher.
Columns and labels:
Assay in all cases: inhibition of tumour cell growth, NCI panel, 48 h
[1] = test system: OVCAR-8
[2] = test system: COLO 205
[3] = test system: M14
[4] = test system: HOP-62
[5] = test system: CAKI-1
[6] = test system: A498
[7] = test system: SK-MEL-5
[8] = test system: SNB-19
[9] = test system: UACC-62
[10] = test system: TK-10
[11] = test system: HL-60
[12] = test system: NCI-H522
[13] = test system: SW-620
[14] = test system: CCRF-CEM
[15] = test system: NCI-H23
[16] = test system: HT-29
[17] = test system: MCF7
[18] = test system: RPMI-8226
[19] = test system: KM12
[20] = test system: LOX IMVI

| Compound | GI50 [1] | GI50 [2] | GI50 [3] | GI50 [4] | GI50 [5] | GI50 [6] | GI50 [7] | GI50 [8] | GI50 [9] | GI50 [10] | GI50 [11] | GI50 [12] | GI50 [13] | GI50 [14] | GI50 [15] | GI50 [16] | GI50 [17] | GI50 [18] | GI50 [19] | GI50 [20] |
| --- | --- | --- | --- | --- | --- | --- | --- | --- | --- | --- | --- | --- | --- | --- | --- | --- | --- | --- | --- | --- |
| CC(C)(C)OC(=O)NC(Cc1ccc(OCc2ccccc2)cc1)C(=O)NC(COCc1ccccc1)C(=O)Oc1c(Cl)c(Cl)c(Cl)c(Cl)c1Cl (stereo not given) | 21.5 µM (inactive) | 18.7 µM (inactive) | 20.8 µM (inactive) | 16.4 µM (inactive) | 19.9 µM (inactive) | 23.1 µM (inactive) | 17.3 µM (inactive) | 29.3 µM (inactive) | 16.2 µM (inactive) | 29.8 µM (inactive) | 59.8 µM (inactive) | 22.2 µM (inactive) | 25.6 µM (inactive) | 55.2 µM (inactive) | 17.2 µM (inactive) | 25.6 µM (inactive) | 22.4 µM (inactive) | 37.7 µM (inactive) | 19.3 µM (inactive) | 23.6 µM (inactive) |
| C=CC[N+]12CN3CN(CN(C3)C1)C2 | 24 µM (inactive) | 25.9 µM (inactive) | 25.8 µM (inactive) | > 100 µM (inactive) | 20.5 µM (inactive) | 32.8 µM (inactive) | 36.6 µM (inactive) | 40 µM (inactive) | 27.4 µM (inactive) | 22.6 µM (inactive) | 35.3 µM (inactive) | 14.3 µM (inactive) | 5.94 µM (inactive) | 5.83 µM (inactive) | 24.2 µM (inactive) | 17.9 µM (inactive) | 30.1 µM (inactive) | 4.14 µM (inactive) | 29 µM (inactive) | 27 µM (inactive) |
| CC(C(=O)NCCNC(=O)CCC(=O)N(C)O)C(=O)NCCNC(=O)CCC(=O)N(C)O | > 100 µM (inactive) | > 100 µM (inactive) | > 100 µM (inactive) | > 100 µM (inactive) | > 100 µM (inactive) | > 100 µM (inactive) | 97.9 µM (inactive) | > 100 µM (inactive) | > 100 µM (inactive) | > 100 µM (inactive) | > 100 µM (inactive) | > 100 µM (inactive) | > 100 µM (inactive) | > 100 µM (inactive) | > 100 µM (inactive) | > 100 µM (inactive) | > 100 µM (inactive) | > 100 µM (inactive) | > 100 µM (inactive) | > 100 µM (inactive) |
| O=c1[nH]nc(-c2ccccc2)n1/N=C/c1ccccc1Cl | 39.1 µM (inactive) | 37.1 µM (inactive) | 35.4 µM (inactive) | 29.4 µM (inactive) | 36.6 µM (inactive) | 30.1 µM (inactive) | 18.6 µM (inactive) | > 100 µM (inactive) | 20 µM (inactive) | 75.9 µM (inactive) | 19.5 µM (inactive) | 18 µM (inactive) | 50.7 µM (inactive) | 28.1 µM (inactive) | 34.7 µM (inactive) | 28.9 µM (inactive) | 31.8 µM (inactive) | 21.1 µM (inactive) | 12 µM (inactive) | 25.1 µM (inactive) |
| COc1c2c(nc3ccccc13)-c1cc3c(c(=O)n1C2)COC(=O)C3(O)CC(=O)N1CCOCC1 (stereo not given) | 3.58 µM (inactive) | 27.8 µM (inactive) | 4.04 µM (inactive) | 1 µM (active) | 3.79 µM (inactive) | 13.2 µM (inactive) | 4.09 µM (inactive) | 1.27 µM (inactive) | 0.76 µM (active) | 75 µM (inactive) | 2.72 µM (inactive) | 1.9 µM (inactive) | 5.4 µM (inactive) | 0.164 µM (active) | 1.75 µM (inactive) | 17.3 µM (inactive) | 1.06 µM (active) | 6.43 µM (inactive) | 17.1 µM (inactive) | 1.36 µM (inactive) |
| COc1ccc(-c2csc3c2[N+]2(C)C=CC=C2C3N2CCCC2)cc1 (stereo not given) | 17.5 µM (inactive) | 13.6 µM (inactive) | 29.8 µM (inactive) | 27.2 µM (inactive) | > 100 µM (inactive) | 31.1 µM (inactive) | 8.59 µM (inactive) | 26.6 µM (inactive) | 15.5 µM (inactive) | 48.9 µM (inactive) | 3.61 µM (inactive) | 2.43 µM (inactive) | 24.4 µM (inactive) | 28.3 µM (inactive) | 10.6 µM (inactive) | 16.9 µM (inactive) | 29 µM (inactive) | 8.34 µM (inactive) | 15.3 µM (inactive) | 35 µM (inactive) |
| CCN(CCO)C(=O)C1(c2ccccc2)CCCCC1 | > 10 µM (inactive) | > 10 µM (inactive) | > 10 µM (inactive) | > 10 µM (inactive) | > 10 µM (inactive) | > 10 µM (inactive) | > 10 µM (inactive) | > 10 µM (inactive) | > 10 µM (inactive) | > 10 µM (inactive) | > 10 µM (inactive) | > 10 µM (inactive) | > 10 µM (inactive) | > 10 µM (inactive) | > 10 µM (inactive) | > 10 µM (inactive) | > 10 µM (inactive) | > 10 µM (inactive) | > 10 µM (inactive) | > 10 µM (inactive) |
